The values that follow come from article PMC10759932 (Nature cell biology, 2023).

One test has as its target T1, PcaK (Pseudomonas putida, UniProt Q51955).
T1 sequence (Q51955 1-448): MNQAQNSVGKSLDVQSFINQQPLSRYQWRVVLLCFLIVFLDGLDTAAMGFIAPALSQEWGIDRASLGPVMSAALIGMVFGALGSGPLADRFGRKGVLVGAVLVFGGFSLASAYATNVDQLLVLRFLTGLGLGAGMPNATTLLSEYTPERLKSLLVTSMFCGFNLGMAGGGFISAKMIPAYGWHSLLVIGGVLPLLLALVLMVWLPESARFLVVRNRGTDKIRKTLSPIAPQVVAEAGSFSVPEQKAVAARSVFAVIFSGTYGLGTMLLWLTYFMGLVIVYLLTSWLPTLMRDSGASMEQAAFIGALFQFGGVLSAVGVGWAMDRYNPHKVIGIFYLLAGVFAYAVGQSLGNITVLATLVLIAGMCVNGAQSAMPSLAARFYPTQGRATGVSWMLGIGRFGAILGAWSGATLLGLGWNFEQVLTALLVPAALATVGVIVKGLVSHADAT
Description: radiolabelled uptake into E. coli cells. The note with it: 50 μM 4-HB; whole E. coli cells; labelled compound. It is filed as cell-based.

Another test addresses S. pombe Hem25p (Schizosaccharomyces pombe, UniProt Q9P6N6). The note with it: whole E. coli cells; labelled compound.

Sequence of S. pombe Hem25p (Q9P6N6 whole entry): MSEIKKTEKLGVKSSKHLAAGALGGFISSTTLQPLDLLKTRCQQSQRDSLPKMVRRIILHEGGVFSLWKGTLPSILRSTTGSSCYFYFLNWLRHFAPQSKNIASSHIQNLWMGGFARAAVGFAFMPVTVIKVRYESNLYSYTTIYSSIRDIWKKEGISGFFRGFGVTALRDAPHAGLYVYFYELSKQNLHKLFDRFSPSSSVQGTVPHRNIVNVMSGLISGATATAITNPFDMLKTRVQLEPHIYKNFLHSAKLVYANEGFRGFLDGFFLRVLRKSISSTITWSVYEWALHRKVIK

For the compound `O=C(O)c1ccc(O)cc1` [4-HB], on PcaK, the “radiolabelled uptake into E. coli cells” value is on record as “Uptake of 4-HB was only seen when the known bacterial 4-HB transporter PcaK was expressed”.

Turning to `C=C(C)CCOP(=O)(O)OP(=O)(O)O` [IPP], at S. pombe Hem25p, the “radiolabelled uptake into E. coli cells” value was “Hem25p from S. pombe and S. cerevisiae”.
